Entries after “also recorded” stand apart in the source; their conditions may differ. Like-named read-outs stand apart in the source and are kept apart here.
What was measured:
P2Y6 receptor [1] = molecular target: T1, P2Y6 receptor (Homo sapiens, UniProt Q15077); test: Activation of P2Y6 receptor, receptor induced Ca2+ changes with fluo-4; format: cell-based; design: expressed in transfected cells; host or cells: 1321N1 human astrocytoma cells
Description: (§1) Synthetic ligands were tested for activation of P2Y6 receptor by measuring receptor induced Ca^2+ changes with the fluorescent Ca^2+ indicator fluo-4. 1321N1 human astrocytoma cell lines either expressing P2Y2, P2Y4 or P2Y6 receptors were plated into 24-well plates. Two days after plating, fluorometric measurements were made and responses of cells to a serial dilution of ligands were determined. P2Y6 mediated Ca^2+ fluorescent change was determined by normalized accumulation of fluorescent change of 3 timepoints after ligand administration subtracted by value from ACSF control. Changes in fluorescent intensity were plotted corresponding to ligand concention in GraphPad. Dose-response curve and EC50 for each ligand was estimated using nonlinear curve fit and Sigmoidal dose-response analysis. […] The ability of the sodium salt of compound 5 to elevate Ca^2+ signals in P2Y6 expressing cells was attenuated by addition of the P2Y6 antagonist MRS2578.
as §1, with “fluo-4, and results are shown in FIG. 10(A)-(K).” for “fluo-4.”

PSAPP mice [2] = test: Tolerability of increased dose of PSB0474; format: in vivo, mouse; conditions: 1000× increase in dose
PSAPP mice [3] = test: Postmortem immunohistochemistry of plaque load in cortex and hippocampus; format: in vivo, mouse; conditions: for immunoreactivity of β1-40 (plaque load): i.p. for 4 and 6 consecutive days
Text: (§2) Heterozygous mutant (K670N/M671L) APP (50% C57B6, 50% SJL) transgenic mice were crossed with heterozygous mutant (A246E) PS-1 (50% C57B6, 50% SJL) transgenic mice to generate heterozygous PSAPP transgenic mice (also referred to as PS-1/APP or PSAPP+/+ mice), which refers to animals heterozygous for the PS-1 A246E transgene and the APP K670N/M671L transgene. Non-transgenic control animals were littermates (also referred to as PSAPP_−/− mice) generated in the breeding for PSAPP transgenic animals. Mouse genotype was determined by Polymerase Chain Reaction (PCR). Both male and female mice of 6-7 months old were used for the experiments below. All animal experiments were performed in accordance with the Tufts Animal Care and Use Committee and with national regulations and policies.
Mice were perfused transcardially with 4% paraformaldehyde and 40 μm Coronal sections were collected. Sections were sequentially incubated in 0.3% H2O2 for 10 minutes, blocking solution for 2 hrs, blocking solution containing the primary antibody (rabbit anti-beta1-42; rabbit anti-beta1-40, from Chemicon International and rat anti-CD45) for 48 hours at 4° C., and blocking solution containing biotinylated antibody or fluorescently-labeled antibody for 2 hours at room temperature. Sections were visualized in a bright field microscope or a confocal microscope, and the optical density was obtained using MetaMorph software.
After repeated imaging, brains were fixed and subjected to postmortem immunohistochemistry with amyloid beta specific antibodies β1-40 and β1-42 to evaluate the plaque load (area occupied by immunostaining of plaque) in cortex and hippocampus.
PSB0474 was systemically administered to PSAPP mice via intraperitoneal injection for 2, 4 and 6 consecutive days. In one group, prior to evaluation and following to administration for 6 consecutive days, treatment was suspended for two weeks (6+2 weeks group). Brains were then fixed and plaque load was evaluated by immunostaining with the amyloid beta specific antibodies: β1-40 and β1-42. Representative images of plaque load in cortex and hippocampus from animals that received injections of PSB0474 according to the foregoing injection schedules are shown in FIG. 5(A)-(D). […] Whereas, when administration of PSB0474 was stopped for 2 weeks following six consecutive days of treatment (denoted as the 6+2 weeks group), β1-40 staining rebounded; although to a level lower than observed in mice treated with saline as a vehicle control. […]
To generate these graphs showing plaque load, mice were euthanized, brain sections cut and antibodies directed against Aβ 42 were used to disclose Aβ plaques. […] The algorithm then calculated the percent area of the field of view occupied by the plaques.

P2Y6 receptor [4] = molecular target: T1, P2Y6 receptor; conditions: cited from earlier work
PSAPP mice [5] = test: Contextual fear conditioning test; format: in vivo, mouse
Text: as §2
On day one, animals were trained in a fear conditioning apparatus for a total of 7 minutes with a two-pairing paradigm of cue and mild foot shock (a 30-s acoustic-conditioned stimulus, 80 dB; a 2-s shock stimulus, 0.5 mA). To evaluate contextual fear learning, the animals were returned to the training context 24 hours post-training, and freezing behavior was scored for 5 minutes. Freezing behavior was monitored by MotorMonitor (Hamilton Kinder) and scored every 5 seconds.
In this study, the fear conditioning associative learning paradigm was used as a rapid cognition assay for PSAPP mice. This study allowed us to probe cognitive function with a single training day followed in 24 hours by tests for contextual and cued fear learning. Contextual fear learning is dependent upon a brain area that has been implicated as a locus for cognitive decline in AD: the hippocampus. Two pairings of CS-US for fear conditioning were followed 24 hours later by testing for contextual and cued fear learning. Previous studies have reported that PSAPP animals appear to have a selective hippocampus-dependent impairment in associative learning following two pairings of conditioned stimuli for fear conditioning.
This represents a decrease in the cognitive impairment observed in the untreated mice.

PSAPP mice [6] = test: Postmortem immunohistochemistry of plaque load in cortex and hippocampus; format: in vivo, mouse; conditions: for decrease in plaque load: acute i.c.v. UDP
PSAPP mice [7] = test: Soluble Abeta level detected with ELISA; format: in vivo, mouse; conditions: UDP treatment
PSAPP mice [8] = test: Two-photon in vivo imaging of amyloid plaques in barrel cortex; design: species or system mouse
Text: as §2
In this study, PSAPP mice were anesthetized using isoflurane and a thin-skull preparation was used to minimize the surface damage. Amyloid plaques were visualized with methoxyX04 labeling and blood plasma was labeled with Rhodamine dextran to facilitate re-localization of the same imaging area. Stack images were obtained using a two-photon system (Prairie Technologies) with excitation at 850 nm. The emission was detected by external photomultiplier tubes (525/70; DLCP 575; 607/45 nm).
Animals were anesthetized and immobilized in a stereotaxic frame. For each injection, 1 μl of 10 mM UDP or other suitable compounds in artificial cerebrospinal fluid (ACSF) as the vehicle were injected intraventricularly using the following coordinates: AP 0.2 mm, ML 1 mm, and DV 2.2 mm.
To evaluate the effect of UDP on plaque burden, two-photon microscopy was used to assess the amyloid plaques in the barrel cortex in living PSAPP mice. Amyloid plaques were stained by systemically administered methoxy-X04. One day prior to imaging, PSAPP mice were injected with methoxyX04 to label the amyloid plaques. On the imaging day, to facilitate the re-location of the same imaging area, blood plasma was labeled with Rhodamine dextran. Images were obtained from the same start- and end-point to ensure the same image volume.
The results were shown in a maximum intensity projection of a fluorescent stack containing 45 planes. Immediately after imaging, animals were injected with ACSF or UDP intracerebroventricularly (i.c.v.) and allowed to recover. On day 4, animals were subjected to a second period of imaging of the same regions studied on day 1 and the results are shown in FIG. 1(D)-(F). The similar pattern of angiopathy (shown by open arrows) indicated the same imaging area.

PSAPP mice [9] = test: Hippocampal long-term potentiation (LTP) recording; format: in vivo, mouse
Description: Hippocampal slices ([…] thick) were prepared from 6-month-old PSAPP mice. Baseline responses were obtained every 10 seconds and Input-output (I/O) curves, paired-pulse modification and LTP were successively measured. The stimulation intensity was set to a level that gives a value of 30% of the maximum obtained. LTP were induced by high frequency stimulation (HFS, 100 pulses at 100 Hz, four times) or by theta-burst stimulation (TBS, 10 bursts at 5 Hz, repeated 10 times in 15 s intervals).
Accumulated evidence has shown that amyloid peptides naturally secreted or isolated from Alzheimer's brains impair synaptic plasticity, especially hippocampal long-term potentiation (Walsh et al., 2002). Therefore, we further performed LTP recordings in PASPP mice and investigated whether P2Y6 receptor-mediated plaque clearance affects synaptic plasticity. […] First, it was observed that LTP at the schaffer collateral synapse within the CA1 region was depressed in PSAPP mice, as compared with littermates (FIG. 8(A)).

P2Y2 receptor = molecular target: T2, P2Y2 receptor (Homo sapiens, UniProt P41231); test: Ca2+ mobilizing effect in 1321N1 cells expressing P2Y2 (fluo-4); format: cell-based; conditions: sodium salt; 1321N1 human astrocytoma cells expressing P2Y2
T2 construct: expressed in transfected cells; host or cells: 1321N1 human astrocytoma cells
T2 sequence (P41231 whole entry): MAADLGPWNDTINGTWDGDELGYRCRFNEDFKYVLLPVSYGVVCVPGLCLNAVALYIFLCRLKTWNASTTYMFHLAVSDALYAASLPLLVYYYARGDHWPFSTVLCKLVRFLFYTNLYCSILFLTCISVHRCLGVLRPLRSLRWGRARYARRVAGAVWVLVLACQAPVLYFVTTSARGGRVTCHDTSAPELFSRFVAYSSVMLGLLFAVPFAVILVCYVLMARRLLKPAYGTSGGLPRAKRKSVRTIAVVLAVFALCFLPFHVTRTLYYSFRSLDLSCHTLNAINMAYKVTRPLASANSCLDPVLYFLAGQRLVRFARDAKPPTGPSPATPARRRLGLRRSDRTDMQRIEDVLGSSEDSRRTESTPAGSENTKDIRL
Description: (§3) Synthetic ligands were tested for activation of P2Y6 receptor by measuring receptor induced Ca^2+ changes with the fluorescent Ca^2+ indicator fluo-4. 1321N1 human astrocytoma cell lines either expressing P2Y2, P2Y4 or P2Y6 receptors were plated into 24-well plates. Two days after plating, fluorometric measurements were made and responses of cells to a serial dilution of ligands were determined. P2Y6 mediated Ca^2+ fluorescent change was determined by normalized accumulation of fluorescent change of 3 timepoints after ligand administration subtracted by value from ACSF control. Changes in fluorescent intensity were plotted corresponding to ligand concention in GraphPad. Dose-response curve and EC50 for each ligand was estimated using nonlinear curve fit and Sigmoidal dose-response analysis. […]
(§4) Synthetic ligands were tested for activation of P2Y6 receptor by measuring receptor induced Ca^2+ changes with the fluorescent Ca^2+ indicator fluo-4, and results are shown in FIG. 10(A)-(K). […] Two days after plating, fluorometric measurements were made and responses of cells to a serial dilution of ligands were determined. P2Y6 mediated Ca^2+ fluorescent change was determined by normalized accumulation of fluorescent change of 3 timepoints after ligand administration subtracted by value from ACSF control. […]

P2Y4 receptor = molecular target: T3, P2Y4 receptor (Homo sapiens, UniProt P51582); test: Ca2+ mobilizing effect in 1321N1 cells expressing P2Y4 (fluo-4); format: cell-based; conditions: sodium salt; 1321N1 human astrocytoma cells expressing P2Y4
T3 construct: expressed in transfected cells; host or cells: 1321N1 human astrocytoma cells
T3 sequence (P51582 whole entry): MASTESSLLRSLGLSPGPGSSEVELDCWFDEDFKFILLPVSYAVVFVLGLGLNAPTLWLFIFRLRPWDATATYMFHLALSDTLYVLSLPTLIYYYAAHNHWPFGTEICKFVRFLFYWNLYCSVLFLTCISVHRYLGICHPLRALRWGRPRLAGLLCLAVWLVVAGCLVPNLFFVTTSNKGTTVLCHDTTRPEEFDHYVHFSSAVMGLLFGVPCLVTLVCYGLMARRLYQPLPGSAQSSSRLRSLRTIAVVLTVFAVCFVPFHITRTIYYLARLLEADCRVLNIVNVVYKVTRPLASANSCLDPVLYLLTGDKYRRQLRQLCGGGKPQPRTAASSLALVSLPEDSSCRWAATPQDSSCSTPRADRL
Description: as §3, §4

[10] = acute i.c.v. UDP, barrel cortex, day 4 vs day 1, P<0.01

T1 sequence (Q15077 whole entry): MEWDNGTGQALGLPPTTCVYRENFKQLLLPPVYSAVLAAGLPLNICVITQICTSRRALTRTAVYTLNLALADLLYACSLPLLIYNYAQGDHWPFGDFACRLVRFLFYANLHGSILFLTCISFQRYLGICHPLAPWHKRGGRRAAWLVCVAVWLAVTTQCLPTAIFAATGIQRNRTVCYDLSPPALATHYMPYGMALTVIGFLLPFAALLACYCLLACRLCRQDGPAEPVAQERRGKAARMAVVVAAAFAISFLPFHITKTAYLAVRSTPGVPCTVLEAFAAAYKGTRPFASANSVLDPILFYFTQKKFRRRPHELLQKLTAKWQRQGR

S=C=Nc1cccc(NC(=S)NCCCCNC(=S)Nc2cccc(N=C=S)c2)c1 [MRS2578]
effect of antagonist on ability of sodium salt of compound 5 to elevate Ca2+ signals (P2Y6 receptor [1]; P2Y6 expressing cells, MRS2578 added): attenuated

O=C(Cn1c(=O)ccn([C@@H]2O[C@H](COP(=O)(O)OP(=O)(O)O)[C@@H](O)[C@H]2O)c1=O)c1ccccc1 [PSB0474, 3-phenacyl-UDP]
detrimental effects to the animal (PSAPP mice [2]): did not cause detrimental effects
β1-40 staining after stopping treatment (PSAPP mice [3]; 6 consecutive days i.p., then stopped for 2 weeks (6+2 weeks group), level lower than saline control): rebounded
immunoreactivity of β1-40 (plaque load) (PSAPP mice [3]; cortex): significantly decreased
effects on the efficacy endpoint at higher dose (PSAPP mice [3]; higher dose of 1 mg/kg, one week daily treatment): smaller effects
immunoreactivity of β1-40 (plaque load) (PSAPP mice [3]; hippocampus): significantly decreased
EC50 (P2Y6 receptor [4]; P2Y6 receptor agonist): 70 nM
selectivity for P2Y6 receptor (P2Y6 receptor [4]): > 500 fold
memory deficit compared to vehicle treatment (PSAPP mice [5]; FIG. 9C, one week treatment with 1 ug/kg): rescued the memory deficit
total freezing percentage in context test (PSAPP mice [5]; chronic injection of PSB0474, two different doses): increased

O=c1ccn([C@@H]2O[C@H](COP(=O)(O)OP(=O)(O)O)[C@@H](O)[C@H]2O)c(=O)[nH]1 [UDP, uridine diphosphate]
decrease in plaque load (PSAPP mice [6]; cortex, β1-40 antibody, p<0.05): 60%
decrease in plaque load (PSAPP mice [6]; cortex, β1-42 antibody, P<0.01): 48%
decrease in plaque load (PSAPP mice [6]; hippocampus, β1-40 antibody, p<0.01): 62%
decrease in plaque load (PSAPP mice [6]; hippocampus, β1-42 antibody, P<0.05): 47%
soluble Aβ40 level (PSAPP mice [7]; FIG. 4E): decreased
soluble Aβ42 level (PSAPP mice [7]; FIG. 4F): decreased
day 4/day 1 ratios of plaque load (PSAPP mice [8]; FIG. 2D, UDP vs ACSF, barrel cortex): significant reductions
day 4/day 1 ratios, number of plaques (PSAPP mice [8]; FIG. 2E, UDP vs ACSF, barrel cortex): significant reductions
reduction in plaque load (PSAPP mice [8]; [10]): 17.2%
reduction in the number of plaques (PSAPP mice [8]; [10]): 12.6%
reduction in cross-sectional area of individual identified plaques (PSAPP mice [8]; acute i.c.v. UDP, second imaging session, P<0.01): 18.2%
field excitatory postsynaptic potential (fEPSP), last 15 min potentiation (PSAPP mice [9]; UDP treatment, comparable to level in littermates): significant increase
LTP at schaffer collateral synapse, CA1 (PSAPP mice [9]; acute UDP treatment vs ACSF, HFS): reversed this LTP deficit
freezing behavior compared to ACSF treatment (PSAPP mice [5]; FIG. 7C, UDP-treatment 3 days prior to the test): significantly improved
freezing behavior during 5 minute-testing time (PSAPP mice [5]; UDP treatment, during the first 4 minutes, not the last minute): increased freezing behavior
total freezing percentage (PSAPP mice [5]; acute UDP i.c.v., contextual test, ACSF control 18%±3%): 49%±5%

O=c1ccn([C@@H]2O[C@H](COP(=O)(O)OP(=O)(O)O)[C@H](O)C2O)c(=O)n1Cc1noc2ccccc12 (stereo partly shown) [compound 5]
elevating Ca2+ levels in P2Y2 receptor expressing cells (P2Y2 receptor): not effective
Aβ plaque load (%) in the cortex vs vehicle control (PSAPP mice [6]; FIG. 12A, β1-42 antibody, compound 5 i.p. 7 days): substantial decrease
Aβ plaque load (%) in the hippocampus vs vehicle control (PSAPP mice [6]; FIG. 12B, β1-42 antibody, compound 5 i.p. 7 days): substantial decrease
elevating Ca2+ levels in cells expressing P2Y6 receptors (P2Y6 receptor [1]; sodium salt, 1321N1 human astrocytoma cells expressing P2Y6): only effective
EC50 (P2Y6 receptor [1]; sodium salt, 1321N1 human astrocytoma cells expressing P2Y6, fluo-4 Ca2+): 12 nM
elevating Ca2+ levels in P2Y4 receptor expressing cells (P2Y4 receptor): not effective
freezing behavior compared to the control treatment (PSAPP mice [5]; FIG. 11, compound 5 prior to the test): significantly improved; also recorded: restored to a level equivalent to that observed in wildtype animals
total freezing percentage in the context test (PSAPP mice [5]; compound 5 i.p. daily for 7 consecutive days, 1 ug/kg or 1 mg/kg): increased
